Entries after “also recorded” stand apart in the source; their conditions may differ.
Legend:
[1] = Solubility / miscibility in water; assay type: physicochemical
[2] = Stability of halosilane in saturated aqueous salt solution; assay type: physicochemical; details: halosilane added to saturated aqueous salt solution
Protocol: After cooling to room temperature, 25 ml of the saturated salt solution was added to a 50 ml beaker. To this, 1.2 ml of methyltrichlorosilane was slowly added and stirred into the saturated water. […] A piece of maple wood was added to the solution and vigorously stirred. The dissolved methyltrichlorosilane reacted with the wood and produced hydrochloric acid (HCl) gas as a by-product. There was a slight exotherm observed. After 2 minutes, the wood was removed from the water solution and air-dried. […] The water remained tightly beaded up and gradually evaporated after 30 minutes.

Row | SMILES | miscibility with water [1] | reaction with water of the saturated salt solution [2]
1 | CCCCCCCC[Si](OCC)(OCC)OCC [n-octyltriethoxysilane] | not very miscible at any concentration | 
2 | C[Si](Cl)(Cl)Cl [methyltrichlorosilane] |  | did not react with the water; also recorded: no reaction; also recorded: No exotherm or reaction was observed
3 | CO[Si](C)(OC)OC [methyltrimethoxysilane] | readily miscible with water | 
